From PMC12677653, “Inhibition of Tumor Lipogenesis and Growth by Peptide‐Based Targeting of SREBP Activation” (Advanced Science, 2025) come the findings set out here.

Assay [1] concerns Insig1 S207/Insig2 S151 phosphorylation. Put plainly: Immunoblot of Insig1 S207/Insig2 S151 phosphorylation, Huh7. The format is cell-based, human. The conditions noted are these: Huh7 cells, peptide 7.5 or 15 µM 1 h before IGF1 100 ng/mL. As to the method:
Figure 1 The Insig1/2 loop 1 peptide binds to S90‐phosphorylated PCK1 and blocks PCK1‐mediated SREBP activation and tumor cell proliferation. Immunoblotting analyses were performed using the indicated antibodies; representative results from three independent experiments are shown (IP, immunoprecipitation; WB, western blot). a) Huh7 cells expressing various Insig1 (top) or Insig2 (bottom) truncation mutants were treated with or without IGF1 (100 ng mL^−1) for 1 h. b,c) Biolayer interferometry assays (Sartorius Octet) were employed to measure the binding affinity of Insig1/2 loop 1 peptide to GST‐PCK1 or GST‐PCK1 pS90 proteins. […] Statistical significance was determined by one‐way analysis of variance (ANOVA). g) Following pretreatment with Insig1/2 loop 1 peptide (15 µM) and IGF1 stimulation (100 ng mL^−1, 8 h), Huh7 cells were subjected to immunofluorescence analysis (scale bar: 10 µm). h) Quantitative PCR analysis of SREBP1 target gene GPAM in Huh7 cells pretreated with Insig1/2 loop 1 peptide (15 µM) and stimulated with IGF1 (100 ng mL^−1) for 10 h. […] Statistical significance was determined by one‐way analysis of variance (ANOVA). i) Quantitative PCR analysis of SREBP1 target gene FASN in Huh7 cells pretreated with Insig1/2 loop 1 peptide (15 µM) and stimulated with IGF1 (100 ng mL^−1) for 10 h. […]
A general note: In western blotting, separated proteins are transferred to a membrane and probed.

Assay [2] concerns lipid levels, Ki67, Insig1 pS207/Insig2 pS151. Put plainly: Oil Red O and IHC of tumors from high-fat diet mice. The format is in vivo, nude mice. The conditions noted are these: orthotopic Huh7, high-fat diet, IHC; semaglutide 30 nmol/kg ip daily and/or LNP peptide 10 mg/kg iv. The protocol: Figure 5 The Insig1/2 loop 1 peptide in combination with semaglutide treatment induces an additive tumor inhibitor effect. a–c) Huh7 cells were orthotopically injected into the liver of nude mice (n = 7 per group). Treatment groups received intravenous injections of LNP@Insig1/2 loop 1 peptide (10 mg kg^−1, every other day), and/or intraperitoneal injection of Semaglutide (30 nmol kg^−1, daily). (a) Representative optical images of tumors, (b) tumor weights, data are expressed as mean ± SD, statistical significance was determined by one‐way analysis of variance (ANOVA), and (c) survival analysis was performed using Kaplan‐Meier curves. Statistical significance was determined by Log‐rank (Mantel‐Cox) test. d) Cryosections of mouse tumor tissues were prepared, and lipid accumulation was assessed by Oil Red O staining. […] Quantitative analysis of lipid droplet counts (Oil Red O‐positive particles) was performed. Data are expressed as mean ± SD (n = 3). Statistical significance was determined by one‐way analysis of variance (ANOVA). e) Immunohistochemical (IHC) analysis of mouse tumor specimens was performed using the Ki67 antibody. […] Data are expressed as mean ± SD (n = 3). Statistical significance was determined by one‐way analysis of variance (ANOVA). f) Immunohistochemical (IHC) analysis of mouse tumor specimens was performed using the Insig1 pS207/Insig2 pS151 antibody. […]

As to “RKKRRQRRRLYPCIDSHLGEPHKFKRE [Insig1/2 loop 1 peptide]”, the “Insig1 S207/Insig2 S151 phosphorylation” value in assay [1] is given as “markedly inhibited”. In addition, the “high-fat diet-enhanced Insig1 S207 and Insig2 S151 phosphorylation in tumors” value in assay [2] is “reduced”.
